The numbers were not newly measured in patent US9961900B2, “Herbicide formulations” (priority 2012, dated 2018), which cites them from elsewhere.

Each structure is given as a SMILES string. Converted amounts (≈) assume the structure as drawn. Like-named read-outs stand apart in the source and are kept apart here.

The conditions of series [1]: for Hydrolysis DT50: darkness.
The conditions of series [2]: for Aqueous photolysis DT50: pH 7.
Assay in series [3]: not given
The source holds these as a separate data set.

In the case of `COC(=O)C(C)Oc1ccc(Oc2ccc(Cl)cc2Cl)cc1` (racemic) [diclofop-methyl, methyl (RS)-2-[4-(2,4-dichlorophenoxy)phenoxy]propionate], in series [1] (20° C. and pH 7), the “Aqueous hydrolysis (DT50)” value is “at 20 °C and pH 7: 31.7 days”. For the same compound, the “Hydrolysis DT50” value in series [1] (pH 5, 25° C.) was 363 days. In series [1] (pH 7, 25° C.), the “Hydrolysis DT50” value is reported as 31.7 days. Also, the “Hydrolysis DT50” value in series [1] (pH 9, 25° C.) was 0.52 days. Also, the “Aqueous photolysis DT50” value in series [2] is recorded as “Aqueous photolysis DT50 at pH 7: 22 days^++”. Further, the “log P (octanol-water)” value (pH 7, 20° C.) is given as “log P = 4.8”. Moreover, in series [3] (20° C.), the Solubility in acetone entry is “In acetone, toluene, dichloromethane, 500,000 mg/L”; the Solubility in dichloromethane entry is “In acetone, toluene, dichloromethane, 500,000 mg/L”; the “Solubility in n-hexane” value is recorded as “mg/L; in n-Hexane: 49,700 mg/L (all at 20° C.) ^++”; the Solubility in toluene result is “In acetone, toluene, dichloromethane, 500,000 mg/L”. In series [3] (20° C.), the Solubility in water entry is “Water: 0.39 mg/L (20° C.)”.

`CCOC(=O)[C@@H](C)Oc1ccc(Oc2nc3ccc(Cl)cc3o2)cc1` [fenoxaprop-p-ethyl, ethyl (R)-2-[4-(6-chloro-1,3-benzoxazol-2-yloxy)phenoxy]propionate]: the “log P (octanol-water)” value is “log P = 4.58 ^+”. In addition, the “Hydrolytic DT50” value in series [1] (pH 4, 25° C.) is 2.8 days. Also, the “Hydrolytic DT50” value in series [1] (pH 5, 25° C.) is 19.2 days. For the same compound, the “Hydrolytic DT50” value in series [1] (pH 7, 25° C.) was 23.2 days. Further, in series [1] (pH 9, 25° C.), the “Hydrolytic DT50” value is on record as 7), 0.6 d (pH 9) (all at 25° C.) ^+. Moreover, the “Aqueous photolysis DT50” value in series [2] is given as “Aqueous photolysis DT50 at pH 7: 105 days”. Further, in series [3] (20° C.), the Solubility in acetone result is “In acetone, ethyl acetate, toluene, >200 g/L;”; the “Solubility in ethyl acetate” value is “In acetone, ethyl acetate, toluene, >200 g/L;”; the Solubility in methanol result is “methanol 43 g/L (all at 20° C.) ^+”. Besides, in series [3] (pH 5.8, 25° C.), the Solubility in water result is listed as “Water: 0.7 mg/L at pH 5.8 (25° C.)”.

Consider `COc1ncc(F)c2nc(S(=O)(=O)Nc3c(F)cccc3F)nn12` [florasulam], for which the “log P (octanol-water)” value is given as “log P: −1.22”. The Aqueous hydrolysis result in series [1] (at pH 7 and 20° C.) is on record as “Stable”. Moreover, the “Photolytic stability DT50” value in series [2] (at pH 7) is listed as “DT50: 156 d”. Besides, in series [3], the Solubility in acetone result is “Acetone: 123,000 mg/L” and the Solubility in water entry is on record as “Water: 6360 mg/L”.

Take `COC(=O)[C@@H](C)Oc1ccc(Oc2ncc(C(F)(F)F)cc2Cl)cc1` [haloxyfop-p-methyl, methyl (R)-2-{4-[3-chloro-5-(trifluoromethyl)-2-pyridyloxy]phenoxy}propionate]: the DT50 in series [1] (natural water, 20° C.) was 3 days. Moreover, the DT50 entry in series [1] (pH 4, 20° C.) is on record as “stable”. The DT50 in series [1] (pH 7, 20° C.) was 43 days. Moreover, the DT50 in series [1] (pH 9, 20° C.) is 0.63 d (pH 9) (all at 20° C.) ^+. The “Aqueous photolysis DT50” value in series [2] is “Aqueous photolysis DT50 at pH 7: 20 days^++”. For the same compound, under “20° C.”, the “log P (octanol-water)” value was “log P = 4.0”. In addition, in series [3] (25° C.), the Solubility in acetone is > 500 mg/mL, the Solubility in dichloromethane was > 500 mg/mL, the “Solubility in ethyl acetate” value was > 500 mg/mL and the Solubility in methanol was 76 mg/mL (≈ 202 mM). In addition, in series [3] (25° C.), the Solubility in n-hexane was 11 mg/mL (≈ 29.3 mM) and the Solubility in toluene was > 500 mg/mL. For the same compound, in series [3] (pH 5, 25° C.), the Solubility in water was 6.9 mg/L (≈ 0.0184 mM). In addition, in series [3] (pH 7, 25° C.), the Solubility in water is reported as 7.9 mg/L at pH 7 (all at 25° C.). Besides, in series [3] (unbuffered, 25° C.), the Solubility in water is 9.1 mg/L (≈ 0.0242 mM).
